Data published in ChEMBL document CHEMBL6078681, “Discovery and Optimization of Dihydroquinolin-2(1H)-ones as Novel Highly Selective and Orally Bioavailable Phosphodiesterase 5 Inhibitors for the Treatment of Pulmonary Arterial Hypertension” (J Med Chem, 2024).

Columns and labels:
[1] = biological target: T1, cGMP-specific 3',5'-cyclic phosphodiesterase (Homo sapiens, UniProt O76074); assay: Inhibition of PDE5A (unknown origin) using […] as substrate incubated for 1 hr by fluorescence polarization assay
[2] = biological target: T1, cGMP-specific 3',5'-cyclic phosphodiesterase; assay: Inhibition of PDE5A (unknown origin) using […] as substrate at 1000 nM incubated for 1 hr by fluorescence polarization assay relative to control
[3] = biological target: T1, cGMP-specific 3',5'-cyclic phosphodiesterase; assay: Inhibition of PDE5A (unknown origin) using […] as substrate at 100 nM incubated for 1 hr by fluorescence polarization assay relative to control

| Structure (SMILES) | IC50 [1] | other results |
| --- | --- | --- |
| Cc1ccc(-c2c(C#N)c(=O)n(Cc3ccccc3)c3c(NCc4ccccc4)cccc23)cc1 | 20 nM |  |
| Cc1ccc(-c2c(C#N)c(=O)n(CC3CCCC3)c3c(NC(C)c4ccccn4)cccc23)cc1 (centres undefined) | 55 nM |  |
| CC(C)c1c(C#N)c(=O)n(Cc2ccccc2)c2c(NC(C)c3ccccn3)cccc12 (centres undefined) | 39 nM |  |
| Cc1ccc(-c2c(C#N)c(=O)n(Cc3ccccc3)c3ccc(NC(C)c4ccccn4)cc23)cc1 (centres undefined) | 291 nM |  |
| Cc1ccc(-c2c(C#N)c(=O)n(CC3CC3)c3c(NC(C)c4ccccn4)cccc23)cc1 (centres undefined) |  | inhibition [2]: 35% |
| CC(Nc1cccc2c(C3CCCC3)c(C#N)c(=O)n(Cc3ccccc3)c12)c1ccccn1 (centres undefined) |  | inhibition [3]: 14% |

The next lines start with results.

| IC50 [1] | Structure (SMILES) | other results |
| --- | --- | --- |
| 8 nM | COc1ccc(-c2c(C#N)c(=O)n(Cc3ccccc3)c3c(N[C@@H](C)c4ccccn4)cccc23)cc1 |  |
| 11 nM | Cc1ccc(-c2c(C#N)c(=O)n(Cc3ccccc3)c3c(NC(C)c4ccccc4)cccc23)cc1 (centres undefined) |  |
| 5 nM | COc1ccc(-c2c(C#N)c(=O)n(Cc3ccccc3)c3c(NC(C)c4ccccn4)cccc23)cc1 (centres undefined) |  |
